Assay results published in patent US20180235931A1, “USE OF NEUROKININ-1 ANTAGONISTS AS ANTITUSSIVES” (Menlo Therapeutics Inc., priority 2017, published 2018).

Tests used:
[1] = cited from earlier work
[2] = In vitro skin permeation, Franz diffusion cell; assay type: in vitro ADME; details: topical formulations B and C on human skin, 37 C, LC-MS/MS
Procedure: In vitro skin permeation of serlopitant in topical formulations A-D was evaluated using a Franz diffusion cell. FIG. 1 illustrates a Franz diffusion cell. A Franz diffusion cell having a circular permeation area of 4.15 cm^2 and a receptor chamber volume of 19 mL was set up with a thermo-regulated outer water jacket to maintain the temperature at 37° C. The receptor chamber was filled with 19 mL 1×PBS (pH 7.5) containing 10% ethanol and 1% Tween® 80.
Human skin was pre-treated to remove all subcutaneous fat and was cleaned with 70% ethanol before use. The skin was visually inspected to ensure that it was free of any surface irregularity or small holes and was equally divided into four pieces. The skin was then mounted onto the receptor chamber with the stratum corneum side facing up. About 100 mg of topical formulation A, B, C or D was applied to the skin (actual weight: A, 103.8 mg; B, 101.3 mg; C, 103.2 mg; and D, 103.8 mg), which was then covered with parafilm to avoid evaporation. […]
All samples were processed by solid-phase extraction (SPE) before LC-MS/MS analysis. […] Serlopitant concentrations in samples resulting from formulations A-D were determined by comparison to the standard. Serlopitant was not detected in samples resulting from topical formulations A and D, as expected. […] After an initial lag, serlopitant was detected by LC-MS/MS in the receptor chamber at 6 hours.

[3] = Solubility test of serlopitant in Franz cell receptor solution; assay type: physicochemical

SMILES	hygroscopicity ([1]; all tested relative humidity conditions)	thermodynamic stability ([1]; below 70 C, Form I vs Form II)	time at which serlopitant was detected in the receptor chamber after initial lag [2]	solubility in receptor solution ([3]; 0.5, 5 and 50 ug/mL in 1xPBS (pH 7.5) containing 10% ethanol and 1% Tween 80, 1 hour at 37 C)	solubility if Tween 80 was not used ([3]; receptor solution without Tween 80)	solubility if ethanol was not used ([3]; receptor solution without ethanol)
C[C@@H](O[C@H]1CC[C@@H]2CN(C3=CC(=O)CC3)C[C@H]2[C@@H]1c1ccc(F)cc1)c1cc(C(F)(F)F)cc(C(F)(F)F)c1 [Form I]	non-hygroscopic	thermodynamically more stable	–	–	–	–
CC(O[C@H]1CC[C@@H]2CN(C3=CC(=O)CC3)C[C@H]2[C@@H]1c1ccc(F)cc1)c1cc(C(F)(F)F)cc(C(F)(F)F)c1 (stereo partly drawn) [serlopitant]	–	–	6 h	remained soluble	decreased significantly	decreased slightly
